Experimental data: patent US20260240914A1, “MENIN-MLL INHIBITORS AND COMPOSITIONS FOR PROLIFERATION OF BETA CELLS” (BIOMEA FUSION, INC., priority 2022, published 2026)

Tests used:
Assay type in all cases: cell-based
human islet microtissues = test: Total ATP content of human islet microtissues (CellTiter-Glo cell viability); conditions: 0.075 μM, 0.15 μM and 0.3 μM; 1, 2 or 3 weeks; through the duration of the assay
Procedure: (§1) The ability of menin-MLL inhibitors to induce beta cell proliferation is tested on human islet microtissue preparations (InSphero). Briefly, human islet microtissues are produced by enzymatic dissociation of the primary islet cells followed by controlled scaffold-free hanging-drop-based self-reaggregation of the islet cells (Misun et al., 2020, Adv. Biosyst. 2020, 4, 1900291). The process helps eliminate contaminating exocrine cells, while enabling homogenous and native-like distribution of endocrine cells within each islet microtissue. Islet microtissues generated by this process are uniform in size, and cellular composition, long lived, functionally robust and display long-term and stable functionality and viability during in vitro culture (Misun et al., 2020, Adv. Biosyst. 2020, 4, 1900291). […]
(§2) At the described termination point (1, 2, or 3 weeks), culture media supernatants were collected for measurement of chronic insulin secretion (insulin secreted since last medium exchange, i.e. 72 hours in this project). […] Tissues were next analyzed for total ATP content using the Promega CellTiter-Glo® Luminescent Cell Viability Assay. […] Supernatants and lysates were appropriately diluted and total and secreted insulin were quantified using ALPCO Stellux® Chemi Human Insulin ELISA.

[1] = tested on: human pancreatic islet beta cells; test: Beta cell proliferation in human islet microtissues (EdU / NKX6.1 3D staining and microscopy); conditions: for proliferating beta cell fraction (EdU+NKX6.1+/NKX6.1 %): 0.3 μM
Procedure: The ability of menin-MLL inhibitors to induce beta cell proliferation is tested on human islet microtissue preparations (InSphero). Briefly, human islet microtissues are produced by enzymatic dissociation of the primary islet cells followed by controlled scaffold-free hanging-drop-based self-reaggregation of the islet cells (Misun et al., 2020, Adv. Biosyst. 2020, 4, 1900291). The process helps eliminate contaminating exocrine cells, while enabling homogenous and native-like distribution of endocrine cells within each islet microtissue. Islet microtissues generated by this process are uniform in size, and cellular composition, long lived, functionally robust and display long-term and stable functionality and viability during in vitro culture (Misun et al., 2020, Adv. Biosyst. 2020, 4, 1900291). The methodology confirms primary human beta cells can be cultured long term (few weeks) under ex-vivo culture conditions to enable beta cell expansion ex-vivo.
Islet microtissues (MTs) were aggregated for 5 days and then released into ultra-low attachment plates. Half of the plates were maintained in standard culture medium (5.5 mM glucose), and half were cultured in high-glucose culture medium (GTX, 8 mM glucose) starting at Day 9, for the duration of the whole experiment. Starting on Day 12 (after 3 days of GTX pre-treatment for the relevant plates), dosing with compound 10, a representative irreversible menin-MLL inhibitor, was initiated, using a Tecan D300e Digital Dispenser for harmine and Biomea compound. DMSO was normalized by volume across all wells. Media was exchanged and compounds redosed every 2-3 days throughout the experiment. EdU was included during the final 4 days of each treatment period. Compound dosing was randomized; to avoid compound cross-contamination between wells, all media exchanges were performed using 96-well deep-well plates with pipette tip exchange.
Proliferating cells were labeled in 3D by incubating MTs with […] EdU during the final 4 days of compound treatment. At the described termination point (1, 2, or 3 weeks), MTs were washed twice with PBS, fixed for 15 min in 4% PFA, washed twice more with PBS and stored in PBS with 0.05% sodium azide until staining. Islet MTs were then permeabilized with permeabilization buffer (Triton® X-100, 0.5% in PBS w/o Mg2+Ca2+) and washed twice with PBS. EdU was labeled using the Click-it reaction (Click-iT™ EdU Alexa Fluor™ 647 HCS Assay, Thermo Fisher). MTs were washed twice with PBS and blocked with 10% FCS solution to prevent nonspecific antibody binding, before overnight incubation with rabbit mAB NKX6.1 [EPR20405] (Abcam, ab221549) at a 1:200 dilution in antibody dilution buffer (10% FCS, 0.2% Triton® X-100 in PBS w/o Mg2+Ca2+) as a […]. Goat anti-rabbit secondary antibody AF568 (ThermoFisher A11036) was used as secondary antibody at a 1:200 dilution in antibody dilution buffer, along with DAPI. Finally, islet MTs were transferred into Akura 384-well plates and cleared with ScaleS4 for 3D imaging. Images were acquired using the Yokogawa CQI Benchtop High-Content Analysis System, taking fluorescent images in […] z-steps in blue, red and far-red channels. DAPI-, NKX6.1- and EdU-positive nuclei and signal colocalization were quantified in 3D using a customized CellPathfinder pipeline. Proliferating cells and proliferating-cells were manually counted to validate automated results. Statistical significance was determined with One-way ANOVA and Dunnett's multiple comparisons test, rejecting the null hypothesis at p=0.05. Outliers were detected with ROUT's outlier test (Q=5%). No outlier test was applied to the proliferating cells.

human islet beta cells [2] = test: Total insulin content of human islet microtissues (insulin ELISA of lysates)
Procedure: as §1, §2

human islet beta cells [3] = test: Glucose stimulated insulin secretion assay in human islet microtissues
Procedure: as §1, §2

[4] = compound 10 treatment, dose-dependent
[5] = standard glucose culture conditions (5.5 mM glucose)

C=CC(=O)N[C@@H]1CCCN(Cc2ccnc(C(=O)Nc3ccc(-c4cc5c(N6CCOCC6)ncnc5[nH]4)cc3)c2)C1 (racemic) [Compound 10]
viability as revealed by ATP content readout (human islet microtissues): good viability | proliferation at all three concentrations ([1]; 0.075 μM, 0.15 μM, and 0.3 μM, 7, 14, 21 days, reached highest by day 21): increase in proliferation | proliferating beta cell fraction (EdU+NKX6.1+/NKX6.1 %) ([1]; Day 14 of culture, compared to DMSO control (FIG. 1, graphs B)): substantially | proliferating beta cell fraction (EdU+NKX6.1+/NKX6.1 %) ([1]; Day 21 of culture, compared to DMSO control (FIG. 2, graphs B)): substantially | Total cell proliferation ([1]; compared to DMSO control): not increased | Total β-cell count [1, 4]: significantly increased | β-cell fraction (NKX6.1+/DAPI+ %) [1, 4]: significantly increased | β-cell proliferation relative to solvent control ([1]; high glucose medium (8 mM glucose), 0.075 μM, 0.15 μM, and 0.3 μM, more pronounced than in standard medium): dose dependent increase | beta cell insulin content (human islet beta cells [2]; high glucose conditions (8 mM glucose), treated for 2 and 3 weeks, vs vehicle control (DMSO)): dose dependent increase | total insulin content (human islet beta cells [2]; [5]): largely unchanged | glucose stimulated insulin secretion (human islet beta cells [3]; high glucose conditions (8 mM glucose), compared to vehicle treatment): improved | glucose stimulated insulin secretion (improvement) (human islet beta cells [3]; [5]): not observed
